Series [1] concerns rat. As to conditions: Prenatal developmental toxicity study, sprague dawley, Oral, Gavage/Intubation, dose end: 19 GD.
For series [2], the system named is rat. The settings on record: Prenatal developmental toxicity study, sprague dawley, Oral, Gavage/Intubation, dose end: 19 GD. The source holds these as a separate data set.
Series [3] relates to mouse. The settings on record: Prenatal developmental toxicity study, swiss albino, Oral, Gavage/Intubation, dose end: 16 GD.
Series [4] relates to mouse. The settings on record: Prenatal developmental toxicity study, other, Oral, Water, dose end: 19 GD.
Series [5] concerns rat. As to conditions: Prenatal developmental toxicity study, sprague dawley, Oral, Gavage/Intubation, dose end: 19 GD. This is another data set of the same source.
In series [6] the test system is rat. The settings on record: Multigenerational reproductive toxicity study, sprague dawley, Oral, Water, dose end: 3 generation, systemic / pathology microscopic / liver / apoptosis + systemic / pathology microscopic / liver / glycogen deposition.
Series [7] concerns rat. The settings on record: Peri- and post-natal toxicity study (Segment III), sprague dawley, Oral, Gavage/Intubation, dose end: 5 PND.
The subject of series [8] is rat. The settings on record: Prenatal developmental toxicity study, wistar, Injection, Intramuscular, dose end: 15 GD.
In series [9] the test system is rat. The settings on record: Prenatal developmental toxicity study, sprague dawley, Injection, Intramuscular, dose end: 15 GD.
The test system of series [10] is rat. As to conditions: Prenatal developmental toxicity study, sprague dawley, Oral, [Not Specified], dose end: 15 GD.
In series [11] the test system is rat. As to conditions: Prenatal developmental toxicity study, sprague dawley, Injection, Subcutaneous, dose end: 15 GD.
For series [12], the system named is rat. As to conditions: Prenatal developmental toxicity study, sprague dawley, Oral, Gavage/Intubation, dose end: 15 GD.
Where [13] appears, read: group: developmental, developmental / developmental malformation / bone / fused cartilage + systemic / in life observation / body weight / fetal weight.
The mark [14] stands for this setting: group: maternal, systemic / in life observation / body weight / body weight gain + systemic / in life observation / food consumption / food consumption.
Setting [15] is: group: maternal, systemic / in life observation / body weight / body weight gain + systemic / in life observation / food consumption / food consumption + ….
The mark [16] stands for this setting: group: developmental, developmental / developmental malformation / bone / unossified + systemic / in life observation / body weight / fetal weight.
[17] abbreviates: group: maternal, reproductive / reproductive performance / postimplantation loss / postimplantation loss + reproductive / reproductive performance / ….
[18] abbreviates: group: developmental, developmental / developmental malformation / general / hemorrhage + developmental / developmental malformation / kidney / dilated renal ….
The mark [19] stands for this setting: group: maternal, reproductive / reproductive performance / implantations / implantations + reproductive / reproductive performance / postimplantation loss / ….
[20] abbreviates: group: developmental, developmental / developmental malformation / bone / delayed ossification + developmental / developmental malformation / bone / exencephaly….
[21] abbreviates: group: maternal, reproductive / reproductive performance / resorptions / resorptions + systemic / in life observation / body weight / body weight + systemic….
Setting [22] is: group: maternal, systemic / in life observation / body weight / body weight gain + systemic / in life observation / clinical signs / salivation.
The mark [23] stands for this setting: group: maternal, systemic / in life observation / body weight / body weight gain + systemic / in life observation / clinical signs / salivation + systemic / ….
Where [24] appears, read: group: developmental, developmental / offspring survival late / viability index / viability index + developmental / developmental landmark / vaginal opening / ….
Setting [25] is: group: maternal, reproductive / offspring survival early / dead fetuses / dead fetuses.
Where [26] appears, read: group: offspring, systemic / in life observation / body weight / offspring (pup) weight.
[27] abbreviates: group: offspring, systemic / in life observation / body weight / offspring (pup) weight + systemic / organ weight / prostate / absolute + systemic / organ ….
[28] abbreviates: group: developmental, developmental / developmental malformation / bone / wavy + developmental / developmental malformation / heart / membranous ventricular ….
The mark [29] stands for this setting: group: maternal, reproductive / reproductive performance / postimplantation loss / postimplantation loss.
[30] abbreviates: group: developmental, developmental / developmental malformation / bone / wavy + systemic / in life observation / body weight / fetal weight.
Setting [31] is: group: developmental, developmental / developmental malformation / bone / absent + developmental / developmental malformation / bone / bipartite ossification + ….
Setting [32] is: group: maternal, systemic / pathology gross / liver / enlarged + systemic / in life observation / clinical signs / salivation.

Turning to `CC(C)c1ccc2cc(C(C)C)ccc2c1` [2,6-Diisopropylnaphthalene], in [1] (setting [13]), the LEL amounted to 500 mg/kg/day, the LOAEL was 500 mg/kg/day, the NEL was 150 mg/kg/day and the NOAEL turned out to be 150 mg/kg/day. In series [1] (setting [14]), the LEL amounted to 150 mg/kg/day and the LOAEL was 150 mg/kg/day. For the same molecule, in series [1] (setting [15]), the NEL stood at 50 mg/kg/day and the NOAEL worked out at 50 mg/kg/day.

Molecule `CCC#N` [Propionitrile] had an LEL in [2] (group: developmental, developmental / developmental malformation / bone / unossified) of 40 mg/kg/day. Besides, in series [2] (setting [16]), the lowest-observed-adverse-effect level (LOAEL) was more than 80 mg/kg/day, the NEL worked out at 20 mg/kg/day and the NOAEL was not below 80 mg/kg/day. Besides, in series [2] (setting [17]), the LEL is 80 mg/kg/day, the lowest observed adverse effect level (LOAEL) is more than 80 mg/kg/day, the NEL worked out at 40 mg/kg/day and the NOAEL is not below 80 mg/kg/day.

For the molecule `CC(C)OC(=O)C(C)(C)Oc1ccc(C(=O)c2ccc(Cl)cc2)cc1` [Fenofibrate], in series [3] (setting [18]), the LEL was determined as 11.7 mg/kg/day, the LOAEL was more than 586 mg/kg/day, the NEL is less than 11.7 mg/kg/day and the NOAEL is not below 586 mg/kg/day. Further, in series [3] (setting [19]), the LEL is 586 mg/kg/day, the lowest-observed-adverse-effect level (LOAEL) was more than 586 mg/kg/day, the NEL came to 117 mg/kg/day and the NOAEL was not below 586 mg/kg/day.

On to `Cl.Cl.NCCNCCNCCN` [Trientine hydrochloride], for which, in series [4] (setting [20]), the LOAEL is more than 1600 mg/kg/day, the NEL amounted to 400 mg/kg/day and the no observed adverse effect level (NOAEL) was not below 1600 mg/kg/day. Moreover, the LEL in series [4] (group: developmental, developmental / developmental malformation / bone / delayed ossification + developmental / developmental malformation / bone / microcephaly…) turned out to be 800 mg/kg/day. Also, in [4] (setting [21]), the LEL is 1600 mg/kg/day, the LOAEL is more than 1600 mg/kg/day, the NEL was determined as 800 mg/kg/day and the NOAEL was not below 1600 mg/kg/day.

Turning to `CN=C=S` [Methyl isothiocyanate], in series [5] (setting [16]), the LEL worked out at 30 mg/kg/day, the lowest observed adverse effect level (LOAEL) was determined as 30 mg/kg/day, the NEL came out at 10 mg/kg/day and the NOAEL amounted to 10 mg/kg/day. Also, in series [5] (setting [22]), the LEL amounted to 10 mg/kg/day and the LOAEL is 10 mg/kg/day. For the same molecule, in [5] (setting [23]), the NEL was 3 mg/kg/day and the NOAEL is 3 mg/kg/day.

`CCCCCCCCc1ccc(O)cc1` [4-Octylphenol]: the LEL in [6] (group: offspring) was found to be 1.25 mg/kg/day; in series [6] (group: parental) it was 1.25 mg/kg/day; in [7] (group: developmental, developmental / developmental landmark / vaginal opening / vaginal opening + developmental / developmental landmark / preputial separation…), 50 mg/kg/day; in series [7] (setting [25]), 50 mg/kg/day; in [7] (setting [27]), 12.5 mg/kg/day. For the same molecule, the LOAEL in series [6] (group: offspring) was more than 1.25 mg/kg/day; in [6] (group: parental) it was more than 1.25 mg/kg/day; in [7] (setting [24]), more than 100 mg/kg/day; in series [7] (setting [25]), more than 100 mg/kg/day; in [7] (setting [26]) it was 25 mg/kg/day. The NEL is less than 1.25 mg/kg/day in series [6] (group: offspring); less than 1.25 mg/kg/day in series [6] (group: parental); 25 mg/kg/day in [7] (setting [24]); 25 mg/kg/day in series [7] (setting [25]); less than 12.5 mg/kg/day in series [7] (setting [27]). Besides, the NOAEL in series [6] (group: offspring) is not below 1.25 mg/kg/day; in series [6] (group: parental) it was not below 1.25 mg/kg/day; in series [7] (setting [24]), not below 100 mg/kg/day; in [7] (setting [25]), not below 100 mg/kg/day; in series [7] (setting [26]), 12.5 mg/kg/day.

`OCC(O)CO` [Glycerol]: the LEL is 600 mg/kg/day in [8] (setting [28]); 600 mg/kg/day in [8] (setting [29]); 300 mg/kg/day in [9] (setting [30]); 300 mg/kg/day in series [9] (setting [29]); 600 mg/kg/day in series [10] (setting [28]); 600 mg/kg/day in series [10] (setting [29]). In addition, the LEL in series [11] (setting [28]) and in series [11] (setting [29]) was 600 mg/kg/day each time. Besides, the lowest-observed-adverse-effect level (LOAEL) is more than 600 mg/kg/day in series [8] (setting [28]); more than 600 mg/kg/day in series [8] (setting [29]); more than 1200 mg/kg/day in series [9] (setting [28]); more than 1200 mg/kg/day in series [9] (setting [29]); more than 1200 mg/kg/day in series [10] (setting [28]); more than 1200 mg/kg/day in series [10] (setting [29]). Besides, the LOAEL in series [11] (setting [28]) and in series [11] (setting [29]) was more than 600 mg/kg/day throughout. Also, the NEL is less than 600 mg/kg/day in [8] (setting [28]); less than 600 mg/kg/day in [8] (setting [29]); less than 300 mg/kg/day in series [9] (setting [30]); less than 300 mg/kg/day in series [9] (setting [29]); less than 600 mg/kg/day in [10] (setting [28]); less than 600 mg/kg/day in series [10] (setting [29]). The NEL in series [11] (setting [28]) and in series [11] (setting [29]) was less than 600 mg/kg/day each time. Besides, the NOAEL in series [8] (setting [28]) was not below 600 mg/kg/day; in [8] (setting [29]), not below 600 mg/kg/day; in series [9] (setting [28]), not below 1200 mg/kg/day; in [9] (setting [29]), not below 1200 mg/kg/day; in [10] (setting [28]), not below 1200 mg/kg/day; in [10] (setting [29]) it was not below 1200 mg/kg/day. For the same molecule, the NOAEL in [11] (setting [28]) and in [11] (setting [29]) was not below 600 mg/kg/day in each case.

For the molecule `C[N+]12CN3CN(CN(C3)C1)C2.[Cl-]`, in [12] (setting [31]), the LEL was found to be 1500 mg/kg/day, the LOAEL came out at 1500 mg/kg/day, the NEL was less than 1500 mg/kg/day and the NOAEL was less than 1500 mg/kg/day. The LOAEL in series [12] (group: maternal, systemic / in life observation / body weight / body weight + systemic / pathology gross / liver / enlarged) worked out at 3000 mg/kg/day. Further, in series [12] (group: maternal, systemic / in life observation / body weight / body weight + systemic / pathology gross / liver / enlarged + reproductive / reproductive …), the NOAEL came to 1500 mg/kg/day. For the same molecule, in series [12] (setting [32]), the LEL amounted to 1500 mg/kg/day and the NEL is less than 1500 mg/kg/day.

The values are drawn from EPA's ToxRefDB 2.
